Data taken from ChEMBL document CHEMBL3045679, “Microwave-assisted synthesis and pharmacological studies of novel 5-deazaalloxazine derivatives” (2012).
Values after ≈ are worked out from the molar mass of the structure shown. Active and inactive are the calls of the source. The rule behind the calls is not given here.

What was measured:
Lipomyces lipofer [1] = assay: Antifungal activity against Lipomyces lipofer NCIM 3252 at 1000 ug/disk after 72 hr by disk diffusion method; type: functional; settings: NCIM 3252, 72 h, read-out: DIZ
Lipomyces lipofer [2] = assay: Antifungal activity against Lipomyces lipofer NCIM 3252 at 500 ug/disk after 72 hr by disk diffusion method; type: functional; settings: NCIM 3252, 72 h, read-out: DIZ
Candida albicans [3] = assay: Antifungal activity against Candida albicans NCIM 3471 at 1000 ug/disk after 72 hr by disk diffusion method; type: functional
Candida albicans [4] = assay: Antifungal activity against Candida albicans NCIM 3471 at 500 ug/disk after 72 hr by disk diffusion method; type: functional
Rhodotorula mucilaginosa [5] = assay: Antifungal activity against Rhodotorula mucilaginosa NCIM 3174 at 1000 ug/disk after 72 hr by disk diffusion method; type: functional; settings: NCIM 3174, 72 h, read-out: DIZ
Rhodotorula mucilaginosa [6] = assay: Antifungal activity against Rhodotorula mucilaginosa NCIM 3174 at 500 ug/disk after 72 hr by disk diffusion method; type: functional
Aspergillus flavus [7] = assay: Antifungal activity against Aspergillus flavus NCIM 535 at 1000 ug/disk after 72 hr by disk diffusion method; type: functional; settings: NCIM 535, 72 h, read-out: DIZ
Aspergillus flavus [8] = assay: Antifungal activity against Aspergillus flavus NCIM 535 at 500 ug/disk after 72 hr by disk diffusion method; type: functional
Aspergillus niger [9] = assay: Antifungal activity against Aspergillus niger NCIM 1196 at 1000 ug/disk after 72 hr by disk diffusion method; type: functional; settings: NCIM 1196, 72 h, read-out: DIZ
Aspergillus niger [10] = assay: Antifungal activity against Aspergillus niger NCIM 1196 at 500 ug/disk after 72 hr by disk diffusion method; type: functional
Penicillium chrysogenum [11] = assay: Antifungal activity against Penicillium chrysogenum NCIM 707 at 1000 ug/disk after 72 hr by disk diffusion method; type: functional; settings: NCIM 707, 72 h, read-out: DIZ
Penicillium chrysogenum [12] = assay: Antifungal activity against Penicillium chrysogenum NCIM 707 at 500 ug/disk after 72 hr by disk diffusion method; type: functional
Streptomyces albus [13] = assay: Antibacterial activity against Streptomyces albus NCIM 2178 at 1000 ug/disk after 24 hr by disk diffusion method; type: functional
Streptomyces albus [14] = assay: Antibacterial activity against Streptomyces albus NCIM 2178 at 500 ug/disk after 24 hr by disk diffusion method; type: functional, organism-based
Bacillus cereus [15] = assay: Antibacterial activity against Bacillus cereus NCIM 2155 at 1000 ug/disk after 24 hr by disk diffusion method; type: functional; settings: NCIM 2155, 24 h, read-out: DIZ
Bacillus cereus [16] = assay: Antibacterial activity against Bacillus cereus NCIM 2155 at 500 ug/disk after 24 hr by disk diffusion method; type: functional; settings: NCIM 2155, 24 h, read-out: DIZ
Bacillus subtilis [17] = assay: Antibacterial activity against Bacillus subtilis NCIM 2063 at 1000 ug/disk after 24 hr by disk diffusion method; type: functional; settings: NCIM 2063, 24 h, read-out: DIZ
Bacillus subtilis [18] = assay: Antibacterial activity against Bacillus subtilis NCIM 2063 at 500 ug/disk after 24 hr by disk diffusion method; type: functional; settings: NCIM 2063, 24 h, read-out: DIZ
Klebsiella aerogenes [19] = assay: Antibacterial activity against Enterobacter aerogenes NCIM 2239 at 1000 ug/disk after 24 hr by disk diffusion method; type: functional; settings: NCIM 2239, 24 h, read-out: DIZ
Klebsiella aerogenes [20] = assay: Antibacterial activity against Enterobacter aerogenes NCIM 2239 at 500 ug/disk after 24 hr by disk diffusion method; type: functional
Pseudomonas aeruginosa [21] = assay: Antibacterial activity against Pseudomonas aeruginosa NCIM 2200 at 1000 ug/disk after 24 hr by disk diffusion method; type: functional; settings: NCIM 2200, 24 h, read-out: DIZ
Pseudomonas aeruginosa [22] = assay: Antibacterial activity against Pseudomonas aeruginosa NCIM 2200 at 500 ug/disk after 24 hr by disk diffusion method; type: functional
Escherichia coli [23] = assay: Antibacterial activity against Escherichia coli NCIM 2065 at 1000 ug/disk after 24 hr by disk diffusion method; type: functional; settings: NCIM 2065, 24 h, read-out: DIZ
Escherichia coli [24] = assay: Antibacterial activity against Escherichia coli NCIM 2065 at 500 ug/disk after 24 hr by disk diffusion method; type: functional
Bacillus subtilis [25] = assay: Antibacterial activity against Bacillus subtilis NCIM 2063 after 24 hr by broth dilution assay; type: functional; settings: NCIM 2063, 24 h
Klebsiella aerogenes [26] = assay: Antibacterial activity against Enterobacter aerogenes NCIM 2239 after 24 hr by broth dilution assay; type: functional; settings: NCIM 2239, 24 h
Pseudomonas aeruginosa [27] = assay: Antibacterial activity against Pseudomonas aeruginosa NCIM 2200 after 24 hr by broth dilution assay; type: functional; settings: NCIM 2200, 24 h
Escherichia coli [28] = assay: Antibacterial activity against Escherichia coli NCIM 2065 after 24 hr by broth dilution assay; type: functional; settings: NCIM 2065, 24 h
Lipomyces lipofer [29] = assay: Antifungal activity against Lipomyces lipofer NCIM 3252 after 72 hr by broth dilution assay; type: functional; settings: NCIM 3252, 72 h
Aspergillus flavus [30] = assay: Antifungal activity against Aspergillus flavus NCIM 535 after 72 hr by broth dilution assay; type: functional; settings: NCIM 535, 72 h
Aspergillus niger [31] = assay: Antifungal activity against Aspergillus niger NCIM 1196 after 72 hr by broth dilution assay; type: functional; settings: NCIM 1196, 72 h
Bacillus cereus [32] = assay: Antibacterial activity against Bacillus cereus NCIM 2155 after 24 hr by broth dilution assay; type: functional; settings: NCIM 2155, 24 h
Candida albicans [33] = assay: Antifungal activity against Candida albicans NCIM 3471 after 72 hr by broth dilution assay; type: functional; settings: NCIM 3471, 72 h
Rhodotorula mucilaginosa [34] = assay: Antifungal activity against Rhodotorula mucilaginosa NCIM 3174 after 72 hr by broth dilution assay; type: functional; settings: NCIM 3174, 72 h
Streptomyces albus [35] = assay: Antibacterial activity against Streptomyces albus NCIM 2178 after 24 hr by broth dilution assay; type: functional; settings: NCIM 2178, 24 h

| MIC (Bacillus subtilis [25]) [µg/mL] | MIC (Klebsiella aerogenes [26]) [µg/mL] | MIC (Pseudomonas aeruginosa [27]) [µg/mL] | Compound | zone of inhibition at 1000 µg/disc (Lipomyces lipofer [1]) [mm] | zone of inhibition at 500 µg/disc (Lipomyces lipofer [2]) [mm] | diameter of the inhibition zone (DIZ) (Candida albicans [4]) | zone of inhibition at 1000 µg/disc (Rhodotorula mucilaginosa [5]) [mm] | zone of inhibition at 1000 µg/disc (Aspergillus flavus [7]) [mm] | diameter of the inhibition zone (DIZ) (Aspergillus flavus [8]) | zone of inhibition at 1000 µg/disc (Aspergillus niger [9]) [mm] | zone of inhibition at 1000 µg/disc (Penicillium chrysogenum [11]) [mm] | diameter of the inhibition zone (DIZ) (Streptomyces albus [14]) | zone of inhibition at 1000 µg/disc (Bacillus cereus [15]) [mm] | zone of inhibition at 500 µg/disc (Bacillus cereus [16]) [mm] | zone of inhibition at 1000 µg/disc (Bacillus subtilis [17]) [mm] | zone of inhibition at 500 µg/disc (Bacillus subtilis [18]) [mm] | zone of inhibition at 1000 µg/disc (Klebsiella aerogenes [19]) [mm] | diameter of the inhibition zone (DIZ) (Klebsiella aerogenes [20]) | zone of inhibition at 1000 µg/disc (Pseudomonas aeruginosa [21]) [mm] | zone of inhibition at 1000 µg/disc (Escherichia coli [23]) [mm] | further results |
| --- | --- | --- | --- | --- | --- | --- | --- | --- | --- | --- | --- | --- | --- | --- | --- | --- | --- | --- | --- | --- | --- |
| 7.8 (≈ 30.1 µM) | 31.2 (≈ 120 µM) | 7.8 (≈ 30.1 µM) | COc1cccc2cc3c(=O)[nH]c(=S)[nH]c3nc12 | 14 | 11 | inactive | 9 | 13 | inactive | 10 | 12 | inactive | 12 | 9 | 13 | 10 | 12 | inactive | 13 | 11 | diameter of the inhibition zone (DIZ) (Candida albicans [3]): inactive; diameter of the inhibition zone (DIZ) (Rhodotorula mucilaginosa [6]): inactive; zone of inhibition at 500 µg/disc (Aspergillus niger [10]; NCIM 1196, 72 h, read-out: DIZ): 8 mm; diameter of the inhibition zone (DIZ) (Penicillium chrysogenum [12]): inactive; diameter of the inhibition zone (DIZ) (Streptomyces albus [13]): inactive; zone of inhibition at 500 µg/disc (Pseudomonas aeruginosa [22]; NCIM 2200, 24 h, read-out: DIZ): 10 mm; zone of inhibition at 500 µg/disc (Escherichia coli [24]; NCIM 2065, 24 h, read-out: DIZ): 9 mm; MIC (Escherichia coli [28]): 62.5 µg/mL (≈ 241 µM); MIC (Lipomyces lipofer [29]): 125 µg/mL (≈ 482 µM); MIC (Aspergillus flavus [30]): 125 µg/mL (≈ 482 µM); MIC (Aspergillus niger [31]): 125 µg/mL (≈ 482 µM); MIC (Bacillus cereus [32]): 62.5 µg/mL (≈ 241 µM) |
| 7.8 (≈ 25.3 µM) | 125 (≈ 406 µM) | 125 (≈ 406 µM) | O=c1[nH]c(=S)[nH]c2nc3ccc(Br)cc3cc12 | 12 | 8 | inactive | 12 | 9 | inactive | 10 | 12 | inactive | 15 | 10 | 14 | 12 | 8 | inactive | 12 | 10 | zone of inhibition at 1000 µg/disc (Candida albicans [3]; NCIM 3471, 72 h, read-out: DIZ): 12 mm; zone of inhibition at 500 µg/disc (Rhodotorula mucilaginosa [6]; NCIM 3174, 72 h, read-out: DIZ): 7 mm; diameter of the inhibition zone (DIZ) (Aspergillus niger [10]): inactive; zone of inhibition at 500 µg/disc (Penicillium chrysogenum [12]; NCIM 707, 72 h, read-out: DIZ): 8 mm; zone of inhibition at 1000 µg/disc (Streptomyces albus [13]; NCIM 2178, 24 h, read-out: DIZ): 12 mm; diameter of the inhibition zone (DIZ) (Pseudomonas aeruginosa [22]): inactive; diameter of the inhibition zone (DIZ) (Escherichia coli [24]): inactive; MIC (Escherichia coli [28]): 125 µg/mL (≈ 406 µM); MIC (Lipomyces lipofer [29]): 62.5 µg/mL (≈ 203 µM); MIC (Candida albicans [33]): 125 µg/mL (≈ 406 µM); MIC (Rhodotorula mucilaginosa [34]): 125 µg/mL (≈ 406 µM); MIC (Streptomyces albus [35]): 62.5 µg/mL (≈ 203 µM); MIC (Bacillus cereus [32]): 15.6 µg/mL (≈ 50.6 µM) |
